ChEMBL document CHEMBL1212936, “Discovery of 2-[1-(4-chlorophenyl)cyclopropyl]-3-hydroxy-8-(trifluoromethyl)quinoline-4-carboxylic acid (PSI-421), a P-selectin inhibitor with improved pharmacokinetic properties and oral efficacy in models of vascular injury” (J Med Chem, 2010)
Values after ≈ are worked out from the molar mass of the structure shown. Active and inactive are the calls of the source. The calls are words filed in the database; no cut-off is given here.

Key:
[1] = Physiological stability of the compound at pH 9 assessed as compound remaining after 24 hrs in presence of 20% acetonitrile; type: physicochemical; conditions: read-out: Stability
[2] = Solubility of the compound in fasted simulated intestinal bile salts-lecithin mixture fluid at pH 6; type: physicochemical
[3] = Physiological stability of the compound at pH 7.4 assessed as compound remaining after 16 hrs in presence of 20% acetonitrile; type: physicochemical; conditions: read-out: Stability
Plasma [4] = experiment: Drug level in Sprague-Dawley rat plasma at 15 mg/kg, po; type: ADME, organism-based; parameters: dose 15 mg/kg, route oral; conditions: in vivo
[5] = target: T1, P-selectin glycoprotein ligand 1 (Homo sapiens) (UniProt Q14242); experiment: Inhibition of recombinant PSGL-1 at 250 uM by surface plasmon resonance assay
T1 sequence (whole entry): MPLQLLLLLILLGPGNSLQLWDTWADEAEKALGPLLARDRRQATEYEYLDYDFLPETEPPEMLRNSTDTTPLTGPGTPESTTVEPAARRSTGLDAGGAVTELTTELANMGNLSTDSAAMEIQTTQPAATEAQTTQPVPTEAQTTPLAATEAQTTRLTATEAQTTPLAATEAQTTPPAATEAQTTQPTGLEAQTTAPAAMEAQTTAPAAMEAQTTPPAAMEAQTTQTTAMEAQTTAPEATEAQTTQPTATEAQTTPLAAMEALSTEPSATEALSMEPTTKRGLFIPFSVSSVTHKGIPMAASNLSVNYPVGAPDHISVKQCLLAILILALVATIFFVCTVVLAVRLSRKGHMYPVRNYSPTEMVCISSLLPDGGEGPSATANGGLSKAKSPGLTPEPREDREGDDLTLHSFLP

Rattus norvegicus [6] = experiment: Inhibition of leukocytes rolling flux in acute intravital microscopy model of Sprague-Dawley rat cremasteric postcapillary venules at 3 mg/kg, po after 35 mins relative to control; type: functional
[7] = Oral bioavailability in Beagle dog at 10 mg/kg; type: ADME, organism-based, Canis lupus familiaris; conditions: in vivo
Papio anubis [8] = experiment: Antithrombotic activity in Baboon deep vein thrombosis model assessed as decrease in vein wall inflammation at 1 mg/kg, po; type: functional, organism-based; parameters: dose 1 mg/kg
[9] = Physiological stability of the compound at pH 1 assessed as compound remaining after 8 hrs in presence of 20% acetonitrile; type: physicochemical; conditions: read-out: Stability
[10] = Physiological stability of the compound in simulated intestinal fluid assessed as compound remaining after 8 hrs in presence of 20% acetonitrile; type: physicochemical; conditions: read-out: Stability
[11] = Physiological stability of the compound at pH 7.4 assessed as compound remaining after 4 hrs in presence of 20% acetonitrile; type: physicochemical; conditions: read-out: Stability
[12] = Physiological stability of the compound at pH 9 assessed as compound remaining after 16 hrs in presence of 20% acetonitrile; type: physicochemical; conditions: read-out: Stability
[13] = Solubility of the compound in simulated intestinal fluid; type: physicochemical
[14] = Physiological stability of the compound at pH 4.5 assessed as compound remaining after 8 hrs in presence of 20% acetonitrile; type: physicochemical; conditions: read-out: Stability
[15] = Physiological stability of the compound at pH 4.5 assessed as compound remaining after 20 hrs in presence of 20% acetonitrile; type: physicochemical; conditions: read-out: Stability
[16] = Half life in cynomolgus monkey liver microsomes; type: ADME, Macaca fascicularis, Microsome
[17] = Physiological stability of the compound at pH 1 assessed as compound remaining after 24 hrs in presence of 20% acetonitrile; type: physicochemical; conditions: read-out: Stability
[18] = Physiological stability of the compound in simulated intestinal fluid assessed as compound remaining after 12 hrs in presence of 20% acetonitrile; type: physicochemical; conditions: read-out: Stability
[19] = Physiological stability of the compound at pH 1 assessed as compound remaining after 4 hrs in presence of 20% acetonitrile; type: physicochemical; conditions: read-out: Stability
[20] = Oral bioavailability in Sprague-Dawley rat at 10 mg/kg; type: ADME, organism-based; conditions: in vivo
Plasma [21] = experiment: Drug level in Sprague-Dawley rat plasma at 3 mg/kg, po; type: ADME, organism-based; parameters: dose 3 mg/kg, route oral; conditions: in vivo
[22] = Clearance in Sprague-Dawley rat at 3 mg/kg, iv and 10 mg/kg, po; type: ADME, organism-based; conditions: in vivo
[23] = Physiological stability of the compound at pH 4.5 assessed as compound remaining after 24 hrs in presence of 20% acetonitrile; type: physicochemical; conditions: read-out: Stability
Rattus norvegicus [24] = experiment: Dose normalized AUC in Sprague-Dawley rat measured per mg of plasma at 3 mg/kg, iv and 10 mg/kg, po; type: ADME, organism-based; conditions: in vivo
[25] = Half life in Beagle dog liver microsomes; type: ADME, Canis lupus familiaris, Microsome
[26] = Physiological stability of the compound at pH 7.4 assessed as compound remaining after 20 hrs in presence of 20% acetonitrile; type: physicochemical; conditions: read-out: Stability
[27] = Physiological stability of the compound at pH 4.5 assessed as compound remaining after 4 hrs in presence of 20% acetonitrile; type: physicochemical; conditions: read-out: Stability
[28] = Physiological stability of the compound at pH 6.6 assessed as compound remaining after 12 hrs in presence of 20% acetonitrile; type: physicochemical; conditions: read-out: Stability
Rattus norvegicus [29] = experiment: Inhibition of Sprague-Dawley rat neointimal hyperplasia carotid balloon injury model at 30 mg/kg, po once daily for 13 days; type: functional; conditions: 312 h
[30] = Physiological stability of the compound in simulated intestinal bile salts-lecithin mixture fluid assessed as compound remaining after 20 hrs in presence of 20% acetonitrile; type: physicochemical; conditions: read-out: Stability
[31] = Physiological stability of the compound at pH 6.6 assessed as compound remaining after 8 hrs in presence of 20% acetonitrile; type: physicochemical; conditions: read-out: Stability
[32] = Physiological stability of the compound at pH 1 assessed as compound remaining after 12 hrs in presence of 20% acetonitrile; type: physicochemical; conditions: read-out: Stability
[33] = Permeability from apical to basolateral side in human Caco-2 cells; type: ADME, cell-based
Papio anubis [34] = experiment: Antithrombotic activity in Baboon deep vein thrombosis model assessed as vein opening at 1 mg/kg, po; type: functional, organism-based; parameters: dose 1 mg/kg
[35] = Physiological stability of the compound at pH 1 assessed as compound remaining after 20 hrs in presence of 20% acetonitrile; type: physicochemical; conditions: read-out: Stability
[36] = Physiological stability of the compound at pH 9 assessed as compound remaining after 8 hrs in presence of 20% acetonitrile; type: physicochemical; conditions: read-out: Stability
Rattus norvegicus [37] = experiment: Inhibition of leukocytes rolling flux in acute intravital microscopy model of Sprague-Dawley rat cremasteric postcapillary venules at 7.5 mg/kg, po after 35 mins relative to control; type: functional

remaining at 24 h [1]: 99.6%
solubility [2]: 87 µg/mL
remaining at 16 h [3]: 102%
Cp (Plasma [4]): 24000 ng/mL
inhibition [5]: 55%
bioavailability [7]: 100%
remaining at 8 h [9]: 102%
remaining at 8 h [10]: 104%
remaining at 4 h [11]: 102%
remaining at 16 h [12]: 98.7%
solubility [13]: 3950 µg/mL (≈ 9.69 mM)
remaining at 8 h [14]: 102%
remaining at 20 h [15]: 100%
half-life [16]: > 1 h
remaining at 24 h [17]: 101%
remaining at 12 h [18]: 101%
remaining at 4 h [19]: 101%
bioavailability [20]: 67%
Cp (Plasma [21]): 3000 ng/mL
clearance [22]: 0.7 mL/min/kg
remaining at 24 h [23]: 102%
AUC (Rattus norvegicus [24]): 21000 ng·h/mL
half-life [25]: > 1 h
remaining at 20 h [26]: 102%
remaining at 4 h [27]: 102%
remaining at 12 h [28]: 106%
remaining at 20 h [30]: 103%
remaining at 8 h [31]: 104%
remaining at 12 h [32]: 102%
Papp A→B [33]: 5.1 ×10⁻⁶ cm/s
remaining at 20 h [35]: 102%
remaining at 8 h [36]: 98%
Structure (SMILES): O=C(O)c1c(O)c(C2(c3ccc(Cl)cc3)CC2)nc2c(C(F)(F)F)cccc12
inhibition in vivo at 3 mg/kg (Rattus norvegicus [6]): 12%
Activity (Papio anubis [8]): Active
inhibition in vivo at 30 mg/kg (Rattus norvegicus [29]): 31%
Activity (Papio anubis [34]): Active
inhibition in vivo at 7.5 mg/kg (Rattus norvegicus [37]): 47%
